Data on one compound can be found in PMC7365253 (Journal of the American Chemical Society, 2020).

This experiment deals with Kelch-like ECH-associated protein 1 (KEAP1) (Homo sapiens, UniProt Q14145). It is filed as cell-based.
Kelch-like ECH-associated protein 1 (KEAP1), sequence (Q14145 whole entry): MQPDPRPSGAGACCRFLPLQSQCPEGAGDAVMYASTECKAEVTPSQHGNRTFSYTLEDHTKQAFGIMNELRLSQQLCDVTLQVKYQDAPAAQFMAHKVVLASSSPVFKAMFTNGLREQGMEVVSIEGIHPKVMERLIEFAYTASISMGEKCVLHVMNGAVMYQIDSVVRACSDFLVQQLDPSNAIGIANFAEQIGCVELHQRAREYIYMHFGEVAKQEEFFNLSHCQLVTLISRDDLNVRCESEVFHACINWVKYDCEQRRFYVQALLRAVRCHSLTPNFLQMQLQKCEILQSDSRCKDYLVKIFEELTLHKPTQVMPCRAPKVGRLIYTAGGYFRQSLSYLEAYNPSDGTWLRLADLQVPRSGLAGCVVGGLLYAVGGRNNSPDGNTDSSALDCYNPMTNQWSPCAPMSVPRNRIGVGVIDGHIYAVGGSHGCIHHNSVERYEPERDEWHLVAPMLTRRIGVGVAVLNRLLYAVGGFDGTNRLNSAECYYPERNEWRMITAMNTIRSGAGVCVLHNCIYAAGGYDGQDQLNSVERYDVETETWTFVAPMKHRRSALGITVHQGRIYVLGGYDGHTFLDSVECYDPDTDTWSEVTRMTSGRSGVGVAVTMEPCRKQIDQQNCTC

The compound `Cc1cc(C)c(C#N)c(S(C)(=O)=O)n1` [compound 1, 2-methylsulfony-4,6-diemthyl-nicotinonitrile] yielded an EC50 of 1100 nM.
